In brackets after ≈: the same amount, converted by molar mass. Read-outs that look alike come from different tables or passages of the source.

Here are results for eight compounds from patent US20240425464A1, “Substituted Monohydrazides as Potent Antifungal Agents” (University of Kentucky Research Foundation, priority 2023, published 2024).

Assay type in all cases: cell-based, Candida auris
Test [1] has as its system C. auris AR Bank #381. Nature of the test: MIC determination by in vitro antifungal assay. The conditions noted are these: C. auris AR Bank # 381 (Table 2B). The procedure:
(§1) The antifungal agent amphotericin B (AmB) was purchased from VWR (Radnor PA, USA). AmB was dissolved in DMSO at a final concentration of 5 mg/mL and was stored at −20° C., protected from light. Candida albicans American Type Culture Collection (ATCC) 10231 (strain A), C. albicans ATCC 64124 (B), and C. albicans ATCC MYA-2876 (C) were obtained from Utah State University. C. albicans ATCC 90819 (D), C. albicans ATCC MYA-2310 (E), C. albicans ATCC MYA-1237 (F), C. albicans ATCC MYA-1003 (G), Candida glabrata ATCC 2001 (H), Candida krusei ATCC 6258 (I), Candida parapsilosis ATCC 22019 (J), Cryptococcus neoformans ATCC MYA-895 (M), Aspergillus terreus ATCC MYA-3633 (N), and Aspergillus flavus ATCC MYA-3631 (0) were obtained from the American Type Culture Collection (ATCC; Manassas, VA, USA). Aspergillus nidulans ATCC 38163 (P) was obtained from University of Kentucky. Clinically derived Aspergillus fumigatus NRRL 163 (Q), A. fumigatus NRRL 5109 (R), and A. fumigatus NRRL 6113 (S) were obtained from Northern Regional Research Laboratory (NRRL). Candida auris 384 (K), C. auris 390 (L), and fungal strains 381-400 (including 10 C. auris (AR Bank #381-390), 3 Candida duobushaemulonii (AR Bank #391, AR Bank #392, and AR Bank #394), 2 Candida haemulonii (AR Bank #393 and AR Bank #395), 1 Kodameae ohmeri (AR Bank #396), 1 C. krusei (AR Bank #397), 1 Candida lusitaniae (AR Bank #398), and 2 Saccharomyces cerevisiae strains (AR Bank #399 and AR Bank #400)) were part of a larger fungal library from the AR Bank maintained by the Centers for Disease Control and Prevention (CDC; Atlanta, GA, USA). Filamentous fungi and yeasts were cultivated at 35° C. in RPMI 1640 medium (with L-glutamine, without sodium bicarbonate, Sigma-Aldrich, St. Louis, MO) buffered to a pH of 7.0 with 0.165 M morpholinepropanesulfonic acid (MOPS) buffer (Sigma-Aldrich). For cytotoxicity assays, HepG2 and the mouse macrophage cell line J774A.1 were obtained from University of Kentucky. The human embryonic kidney cell line, HEK-293, was bought from the ATCC. Mammalian cells were grown in Dulbecco's Modified Eagle's Medium (DMEM) (from VWR) with 10% fetal bovine serum (FBS) (from VWR) and 1% Pen/Strep (from ATCC). Cell lines were cultured at 37° C. with 5% CO2 and passaged by trypsinization with 0.05% trypsin: 0.53 mM EDTA (from Sigma-Aldrich).
(§2) From the actively growing yeast culture, 100 µL were then transferred to 900 μL of RPMI 1640 medium and re-adjusted to achieve OD600 of 0.12 (˜1×10^6 CFU/mL). The cell suspension was further diluted to achieve 1:100 in RPMI 1640 medium.

Test [2] deals with C. auris AR Bank #382. Nature of the test: MIC determination by in vitro antifungal assay. The conditions noted are these: C. auris AR Bank # 382 (Table 2B). Here is the method:
as §1, §2

The subject of test [3] is C. auris AR Bank #383. Put plainly: MIC determination by in vitro antifungal assay. The following applies: C. auris AR Bank # 383 (Table 2B). Here is the method: as §1, §2
Test [4] relates to C. auris AR Bank #385. Nature of the test: MIC determination by in vitro antifungal assay. The conditions noted are these: C. auris AR Bank # 385 (Table 2B). The procedure: as §1, §2
Test [5] concerns C. auris AR Bank #386. Nature of the test: MIC determination by in vitro antifungal assay. The conditions noted are these: C. auris AR Bank # 386 (Table 2B). Here is the method: as §1, §2
For test [6], the system named is C. auris AR Bank #387. Nature of the test: MIC determination by in vitro antifungal assay. The conditions noted are these: C. auris AR Bank # 387 (Table 2B). The procedure: as §1, §2
Test [7] has as its system C. auris AR Bank #388. Nature of the test: MIC determination by in vitro antifungal assay. The following applies: C. auris AR Bank # 388 (Table 2B). Here is the method:
as §1, §2

In test [8] the test system is C. auris AR Bank #389. Nature of the test: MIC determination by in vitro antifungal assay. The following applies: C. auris AR Bank # 389 (Table 2B). The procedure: as §1, §2
In test [9] the test system is panel of ten C. auris strains (AR Bank #381-390). Put plainly: MIC determination, summary over the C. auris panel. The following applies: Candidozyma auris. The procedure:
as §1, §2

Setting [10] is: Candidozyma auris, read-out: MIC.
Setting [11] is: against all ten C. auris strains tested (AR Bank #381-390).

In the case of `O=C(NNc1ccc(Cl)cc1)c1cccc(F)n1` [Compound 5e], the MIC in test [1] is 7.8 μg/mL^−1; in test [2] it was 7.8 μg/mL^−1; in test [3], 3.9 μg/mL^−1; in test [4], 3.9 μg/mL^−1; in test [5] it was 7.8 μg/mL^−1; in test [6], 7.8 μg/mL^−1. Further, the MIC in test [7] and in [8] was 7.8 μg/mL^−1 throughout.
Consider `O=C(NNc1ccc(F)cc1F)c1cccc(F)n1` [Compound 5g], for which the MIC was 3.9 µg/mL (≈ 14.6 µM) in test [1] (setting [10]); 0.98 µg/mL (≈ 3.67 µM) in [2] (setting [10]); 1.95 µg/mL (≈ 7.3 µM) in test [3] (setting [10]); 3.9 µg/mL (≈ 14.6 µM) in [4] (setting [10]); 1.95 µg/mL (≈ 7.3 µM) in test [5] (setting [10]); 1.95 µg/mL (≈ 7.3 µM) in test [6] (setting [10]). Besides, the MIC in [7] (setting [10]) is 3.9 µg/mL (≈ 14.6 µM); in test [8] (setting [10]) it was 3.9 µg/mL (≈ 14.6 µM); in [9] (setting [11]) it was 0.12 to 7.8 µg/mL (≈ 0.449 to 29.2 µM).
Regarding `O=C(NNc1ccc(F)cc1)c1cccc(Br)n1` [Compound 6d], the MIC was determined as 1.95 µg/mL (≈ 6.29 µM) in test [1] (setting [10]); 0.98 µg/mL (≈ 3.16 µM) in test [2] (setting [10]); 1.95 µg/mL (≈ 6.29 µM) in [3] (setting [10]); 0.98 µg/mL (≈ 3.16 µM) in test [4] (setting [10]); 1.95 µg/mL (≈ 6.29 µM) in [5] (setting [10]); 0.98 µg/mL (≈ 3.16 µM) in test [6] (setting [10]). In addition, the figures for the MIC in test [7] (setting [10]), in test [8] (setting [10]) and in [9] (setting [11]) were 0.98 µg/mL (≈ 3.16 µM), 1.95 µg/mL (≈ 6.29 µM) and 0.12 to 7.8 µg/mL (≈ 0.387 to 25.2 µM), respectively.
Take `O=C(NNc1ccc(F)cc1)c1ncc(F)cc1F` [Compound 7d]: the MIC in test [1] (setting [10]) amounted to 1.95 µg/mL (≈ 7.3 µM); in [2] (setting [10]) it was 0.98 µg/mL (≈ 3.67 µM); in test [3] (setting [10]) it was 1.95 µg/mL (≈ 7.3 µM); in [4] (setting [10]), 0.49 µg/mL (≈ 1.83 µM); in test [5] (setting [10]), 0.98 µg/mL (≈ 3.67 µM); in test [6] (setting [10]) it was 0.49 µg/mL (≈ 1.83 µM). The MIC in [7] (setting [10]) was 0.49 µg/mL (≈ 1.83 µM); in test [8] (setting [10]), 1.95 µg/mL (≈ 7.3 µM); in test [9] (setting [11]), 0.12 to 7.8 µg/mL (≈ 0.449 to 29.2 µM).
Take `O=C(NNc1ccc(Cl)cc1)c1ncc(F)cc1F` [Compound 7e]: the MIC in test [1] came to 7.8 μg/mL^−1; in test [2] it was 15.6 μg/mL^−1; in [3] it was 3.9 μg/mL^−1; in test [4], 7.8 μg/mL^−1; in test [5], 15.6 μg/mL^−1; in [6] it was 15.6 μg/mL^−1. Besides, the MIC in [7] and in test [8] was 7.8 μg/mL^−1 each time.
`COc1ccc(NNC(=O)c2ncc(F)cc2F)cc1` [Compound 7f]: the MIC in test [1] (setting [10]) came to 0.98 µg/mL (≈ 3.51 µM); in [2] (setting [10]), 0.98 µg/mL (≈ 3.51 µM); in test [3] (setting [10]), 0.98 µg/mL (≈ 3.51 µM); in [4] (setting [10]) it was 0.49 µg/mL (≈ 1.75 µM); in test [5] (setting [10]), 0.98 µg/mL (≈ 3.51 µM); in test [6] (setting [10]) it was 0.98 µg/mL (≈ 3.51 µM). The MIC is 0.98 µg/mL (≈ 3.51 µM) in test [7] (setting [10]), 0.98 µg/mL (≈ 3.51 µM) in test [8] (setting [10]) and 0.49 to 1.95 µg/mL (≈ 1.75 to 6.98 µM) in test [9] (all C. auris strains tested with the exception of AR Bank #390).
As for `O=C(NNc1ccc(F)cc1F)c1ncc(F)cc1F` [Compound 7g], the MIC in [1] (setting [10]) came out at 3.9 µg/mL (≈ 13.7 µM); in test [2] (setting [10]) it was 1.95 µg/mL (≈ 6.84 µM); in [3] (setting [10]), 3.9 µg/mL (≈ 13.7 µM); in [4] (setting [10]), 0.98 µg/mL (≈ 3.44 µM); in test [5] (setting [10]), 1.95 µg/mL (≈ 6.84 µM); in [6] (setting [10]), 1.95 µg/mL (≈ 6.84 µM). The MIC in [7] (setting [10]) was 3.9 µg/mL (≈ 13.7 µM); in [8] (setting [10]) it was 3.9 µg/mL (≈ 13.7 µM); in [9] (setting [11]), 0.12 to 7.8 µg/mL (≈ 0.421 to 27.3 µM).
Turning to `O=C(NNc1ccc(Cl)cc1)c1nc(F)ccc1F` [Compound 8e], the MIC in test [1] is 7.8 μg/mL^−1; in test [2] it was 7.8 μg/mL^−1; in test [3], 7.8 μg/mL^−1; in test [4], 3.9 μg/mL^−1; in test [5] it was 15.6 μg/mL^−1; in test [6], 7.8 μg/mL^−1. The MIC is on record as 15.6 μg/mL^−1 in test [7] and 7.8 μg/mL^−1 in test [8].
